From doi:10.1101/2025.10.03.680348v2, “Cathepsin K as a Key Protease in Processing of SARS-CoV-2 Spike Activation Sites and a Target of Dual-Inhibition” (biorxiv, 2025)

Experiments:
[1] = target: T1, hCatL (human Cathepsin L) (Homo sapiens, UniProt P07711); experiment: fluorogenic inhibition assay, Z-FR-AMC ([…]); type: biochemical; settings: 0.1 M sodium acetate pH 5.5, 2.5 mM DTT, 2.5 mM EDTA, room temperature
T1 construct: gene CTSL; native enzyme from human liver, commercial (Fisher Scientific)

[2] = target: T2, hCatB (Human Cathepsin B) (Homo sapiens, UniProt P07858); experiment: fluorogenic inhibition assay, Z-FR-AMC ([…]); type: biochemical; settings: 0.1 M sodium acetate pH 5.5, 2.5 mM DTT, 2.5 mM EDTA, room temperature
T2 construct: gene CTSB; recombinant human enzyme, gift of J. Mort

T1 sequence (P07711 114-288): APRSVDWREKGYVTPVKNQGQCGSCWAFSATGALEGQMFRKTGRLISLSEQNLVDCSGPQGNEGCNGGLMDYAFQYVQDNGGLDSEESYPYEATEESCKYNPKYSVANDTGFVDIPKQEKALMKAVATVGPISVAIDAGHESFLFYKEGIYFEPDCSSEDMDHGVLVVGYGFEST
T1 sequence (P07711 292-333): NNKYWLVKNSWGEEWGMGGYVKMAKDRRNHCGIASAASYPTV

CC(C)(C)[C@H](NC(=O)C(F)(F)F)C(=O)N1C[C@H]2[C@@H]([C@H]1C(=O)N[C@H](C#N)C[C@@H]1CCNC1=O)C2(C)C [Nirmatrelvir]
not inhibited by 10 μM [1]: > 10 µM
not inhibited by 10 μM [2]: > 10 µM
